According to the supplement of paper PMC10307832:

The cell lines below were run with Cc1ccc(Nc2nccc(N(C)c3ccc4c(C)n(C)nc4c3)n2)cc1S(N)(=O)=O [Pazopanib] (assay: relative viability (nuclei count vs DMSO), 5 days (fraction); higher = more cells survive). Conditions: 1 µM.
How it was run: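 Lung cancer cell lines in 1536-well plates were kept overnight at 37 °C, then pinned with five library-drug doses (not always all listed) spaced by √10 on vehicle-anchored plates. After 5 days without medium change, cells were fixed, permeabilised and Hoechst-stained in one step, imaged at 4×, and nuclei were counted with MetaXpress. Viability is treated-well nuclei divided by vehicle-well nuclei, taken as the median over plates. Plates passed only with control CV below 25% and at least one doubling.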
Work on RERF-LC-KJ yielded a relative viability of 0.969.

These cell lines were tested with Cc1ccc(C(=O)Nc2ccc(CN3CCN(C)CC3)c(C(F)(F)F)c2)cc1C#Cc1cnc2cccnn12 [Ponatinib] + CS(=O)(=O)N1CCN(Cc2cc3nc(-c4cccc5[nH]ncc45)nc(N4CCOCC4)c3s2)CC1 [Pictilisib] (partner 1 µM) (assay: relative viability (nuclei count vs DMSO), 5 days (fraction); higher = more cells survive). Conditions: first compound 0.002 µM.
How it was run: (§1)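 Lung cancer cell lines, seeded in 1536-well plates, were treated the following day by pin tool with a single drug or with five library-drug doses (not always all listed) in √10 steps on top of a fixed anchor-drug dose. Cells were fixed and nuclei stained in one step after 5 days, and nuclei were counted. Relative viability is the nuclei count for treated wells divided by that for vehicle wells, reported as medians of duplicate plates.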
For NCI-H23, the relative viability was 0.588. Work on NCI-H1299 yielded a relative viability of 0.894. Work on NCI-H650 yielded a relative viability of 0.843. Cell Line CAL-12T has a relative viability of 0.425. Cell Line NCI-H1651 has a relative viability of 0.61. EPLC-272H showed a relative viability of 0.29. NCI-H2228 showed a relative viability of 0.606. Cell Line NCI-H1792 has a relative viability of 0.241. With NCI-H1355 the relative viability was 0.408. NCI-H322M showed a relative viability of 0.523. NCI-H1437 gave a relative viability of 0.445. Work on NCI-H1755 yielded a relative viability of 0.502. NCI-H2023 was tested, and the relative viability was 0.261. HCC-15 gave a relative viability of 0.644. For NCI-H1944, the relative viability was 0.319. With PC-3 [JPC-3] the relative viability was 0.653. For EKVX, the relative viability was 0.534. LC-2-ad showed a relative viability of 0.353. Cell Line NCI-H1563 has a relative viability of 0.546. In the case of NCI-H2170, the relative viability is reported as 0.325. Cell Line NCI-H1975 has a relative viability of 0.311. SK-LU-1 gave a relative viability of 0.518. ABC-1 showed a relative viability of 0.826. SK-MES-1 showed a relative viability of 0.392. For NCI-H661, the relative viability was 0.404. RERF-LC-KJ gave a relative viability of 0.618.

Same assay, conditions: first compound 0.006325 µM
NCI-H23 gave a relative viability of 0.592. For NCI-H1299, the relative viability was 0.874. With NCI-H650 the relative viability was 0.739. In the case of CAL-12T, the relative viability is reported as 0.464. NCI-H1651 showed a relative viability of 0.728. For EPLC-272H, the relative viability was 0.373. With NCI-H2228 the relative viability was 0.698. NCI-H1792 gave a relative viability of 0.347. In the case of NCI-H1355, the relative viability is reported as 0.59. NCI-H322M gave a relative viability of 0.522. Work on NCI-H1437 yielded a relative viability of 0.479. With NCI-H1755 the relative viability was 0.535. Cell Line NCI-H2023 has a relative viability of 0.292. HCC-15 showed a relative viability of 0.758. In the case of NCI-H1944, the relative viability is reported as 0.407. Cell Line PC-3 [JPC-3] has a relative viability of 0.708. Cell Line EKVX has a relative viability of 0.5. Work on LC-2-ad yielded a relative viability of 0.239. Cell Line NCI-H1563 has a relative viability of 0.601. NCI-H2170 was tested, and the relative viability was 0.322. NCI-H1975 showed a relative viability of 0.309. Work on SK-LU-1 yielded a relative viability of 0.63. For ABC-1, the relative viability was 0.78. For SK-MES-1, the relative viability was 0.409. Cell Line NCI-H661 has a relative viability of 0.406. Cell Line RERF-LC-KJ has a relative viability of 0.582.

Same assay, conditions: first compound 0.06325 µM
For NCI-H23, the relative viability was 0.571. Cell Line NCI-H1299 has a relative viability of 0.988. In the case of NCI-H650, the relative viability is reported as 0.758. CAL-12T gave a relative viability of 0.515. NCI-H1651 showed a relative viability of 0.552. EPLC-272H showed a relative viability of 0.342. With NCI-H2228 the relative viability was 0.401. For NCI-H1792, the relative viability was 0.388. NCI-H1355 showed a relative viability of 0.563. With NCI-H322M the relative viability was 0.53. In the case of NCI-H1437, the relative viability is reported as 0.495. For NCI-H1755, the relative viability was 0.505. With NCI-H2023 the relative viability was 0.298. For HCC-15, the relative viability was 0.823. NCI-H1944 gave a relative viability of 0.403. In the case of PC-3 [JPC-3], the relative viability is reported as 0.885. Cell Line EKVX has a relative viability of 0.625. With LC-2-ad the relative viability was 0.191. NCI-H1563 showed a relative viability of 0.586. For NCI-H2170, the relative viability was 0.351. Work on NCI-H1975 yielded a relative viability of 0.408. SK-LU-1 showed a relative viability of 0.523. With ABC-1 the relative viability was 0.884. In the case of SK-MES-1, the relative viability is reported as 0.569. Cell Line NCI-H661 has a relative viability of 0.389. Work on RERF-LC-KJ yielded a relative viability of 0.781.

Same assay, conditions: first compound 0.2 µM
For NCI-H23, the relative viability was 0.44. In the case of NCI-H1299, the relative viability is reported as 0.658. NCI-H650 was tested, and the relative viability was 0.88. With CAL-12T the relative viability was 0.432. NCI-H1651 was tested, and the relative viability was 0.634. In the case of EPLC-272H, the relative viability is reported as 0.335. For NCI-H2228, the relative viability was 0.319. NCI-H1792 showed a relative viability of 0.284. In the case of NCI-H1355, the relative viability is reported as 0.568. For NCI-H322M, the relative viability was 0.536. NCI-H1437 gave a relative viability of 0.406. NCI-H1755 was tested, and the relative viability was 0.391. Work on NCI-H2023 yielded a relative viability of 0.212. HCC-15 was tested, and the relative viability was 0.701. Work on NCI-H1944 yielded a relative viability of 0.374. With PC-3 [JPC-3] the relative viability was 0.875. For EKVX, the relative viability was 0.488. Cell Line LC-2-ad has a relative viability of 0.207. Work on NCI-H1563 yielded a relative viability of 0.599. For NCI-H2170, the relative viability was 0.354. NCI-H1975 showed a relative viability of 0.353. For SK-LU-1, the relative viability was 0.377. With ABC-1 the relative viability was 0.658. SK-MES-1 gave a relative viability of 0.48. NCI-H661 gave a relative viability of 0.482. Work on RERF-LC-KJ yielded a relative viability of 0.68.

The cell lines below were run with Cc1ccc(Nc2nccc(N(C)c3ccc4c(C)n(C)nc4c3)n2)cc1S(N)(=O)=O [Pazopanib] + CS(=O)(=O)CCNCc1ccc(-c2ccc3ncnc(Nc4ccc(OCc5cccc(F)c5)c(Cl)c4)c3c2)o1 [Lapatinib] (partner 2 µM) in the same assay as above. Conditions: first compound 0.01 µM.
How it was run: as §1
NCI-H23 showed a relative viability of 0.887. For NCI-H1299, the relative viability was 0.928. Work on NCI-H650 yielded a relative viability of 0.814. With CAL-12T the relative viability was 0.483. For NCI-H1651, the relative viability was 0.76. EPLC-272H gave a relative viability of 0.638. In the case of NCI-H2228, the relative viability is reported as 1.32. NCI-H322M was tested, and the relative viability was 0.587. For NCI-H1437, the relative viability was 0.919. Cell Line NCI-H1755 has a relative viability of 0.943. For NCI-H2023, the relative viability was 0.509.
